In ChEMBL document CHEMBL3621157, “Design, synthesis and biological evaluation of novel 1,2,4-triazolo and 1,2,4-triazino[4,3-a]quinoxalines as potential anticancer and antimicrobial agents” (2015):
Values after ≈ are worked out from the molar mass of the structure shown.

How the values were obtained:
Format in all cases: functional
[1] = system: Candida albicans; assay: Antimicrobial activity against Candida albicans DSM 70014 incubated for 48 hrs followed by transfer of colonies to Muller-Hinton agar plate and measured after 18 hrs by two-fold serial broth dilution method
[2] = system: Escherichia coli; assay: Antimicrobial activity against Escherichia coli ATCC 11775 incubated for 24 hrs by two-fold serial broth dilution method; settings: ATCC 11775, 24 h
[3] = system: Pseudomonas aeruginosa; assay: Antimicrobial activity against Pseudomonas aeruginosa ATCC 10145 incubated for 24 hrs by two-fold serial broth dilution method; settings: ATCC 10145, 24 h
[4] = system: Staphylococcus aureus; assay: Antimicrobial activity against Staphylococcus aureus DSM 1104 incubated for 24 hrs by two-fold serial broth dilution method; settings: DSM 1104, 24 h
[5] = system: Pseudomonas aeruginosa; assay: Antimicrobial activity against Pseudomonas aeruginosa ATCC 10145 incubated for 24 hrs followed by transfer of colonies to Muller-Hinton agar plate and measured after 18 hrs by two-fold serial broth dilution method
[6] = system: Bacillus subtilis; assay: Antimicrobial activity against Bacillus subtilis ATCC 6633 incubated at 37 degC for 24 hrs by cup diffusion method
[7] = system: Staphylococcus aureus; assay: Antimicrobial activity against Staphylococcus aureus DSM 1104 incubated for 24 hrs followed by transfer of colonies to Muller-Hinton agar plate and measured after 18 hrs by two-fold serial broth dilution method
[8] = system: Candida albicans; assay: Antimicrobial activity against Candida albicans DSM 70014 incubated for 48 hrs by two-fold serial broth dilution method; settings: DSM 70014, 48 h
[9] = system: Escherichia coli; assay: Antimicrobial activity against Escherichia coli ATCC 11775 incubated for 24 hrs followed by transfer of colonies to Muller-Hinton agar plate and measured after 18 hrs by two-fold serial broth dilution method
[10] = system: Staphylococcus aureus; assay: Antimicrobial activity against Staphylococcus aureus DSM 1104 incubated at 37 degC for 24 hrs by cup diffusion method
[11] = system: UO-31; assay: Growth inhibition of human UO31 cells at 10 uM incubated for 48 hrs by sulforhodamine B assay; settings: UO-31, 48 h, read-out: GI
[12] = system: Escherichia coli; assay: Antimicrobial activity against Escherichia coli ATCC 11775 incubated at 37 degC for 24 hrs by cup diffusion method
[13] = system: A498; assay: Growth inhibition of human A498 cells at 10 uM incubated for 48 hrs by sulforhodamine B assay; settings: A498, 48 h, read-out: GI
[14] = system: Bacillus subtilis; assay: Antimicrobial activity against Bacillus subtilis ATCC 6633 incubated for 24 hrs followed by transfer of colonies to Muller-Hinton agar plate and measured after 18 hrs by two-fold serial broth dilution method
[15] = system: Pseudomonas aeruginosa; assay: Antimicrobial activity against Pseudomonas aeruginosa ATCC 10145 incubated at 37 degC for 24 hrs by cup diffusion method
[16] = system: Bacillus subtilis; assay: Antimicrobial activity against Bacillus subtilis ATCC 6633 incubated for 24 hrs by two-fold serial broth dilution method; settings: ATCC 6633, 24 h
[17] = system: Candida albicans; assay: Antimicrobial activity against Candida albicans DSM 70014 incubated at 37 degC for 48 hrs by cup diffusion method
[18] = system: SNB-75; assay: Growth inhibition of human SNB75 cells at 10 uM incubated for 48 hrs by sulforhodamine B assay; settings: SNB-75, 48 h, read-out: GI
[19] = Growth inhibition of human HOP92 cells at 10 uM incubated for 48 hrs by sulforhodamine B assay; settings: HOP-92, 48 h, read-out: GI
[20] = system: PC-3; assay: Growth inhibition of human PC3 cells at 10 uM incubated for 48 hrs by sulforhodamine B assay; settings: PC-3, 48 h, read-out: GI
[21] = system: OVCAR-3; assay: Growth inhibition of human OVCAR3 cells at 10 uM incubated for 48 hrs by sulforhodamine B assay; settings: OVCAR-3, 48 h, read-out: GI
[22] = system: NCI-H522; assay: Growth inhibition of human NCI-H522 cells at 10 uM incubated for 48 hrs by sulforhodamine B assay; settings: NCI-H522, 48 h, read-out: GI
[23] = system: SF-268; assay: Growth inhibition of human SF268 cells at 10 uM incubated for 48 hrs by sulforhodamine B assay; settings: SF-268, 48 h, read-out: GI

Structure (SMILES)	MFC [1] [µg/mL]	MIC [2] [µg/mL]	MIC [3] [µg/mL]	MIC [4] [µg/mL]	MBC [5] [µg/mL]	inhibition zone (IZ) [6] [mm]	MBC [7] [µg/mL]	MIC [8] [µg/mL]	MBC [9] [µg/mL]	inhibition zone (IZ) [10] [mm]	inhibition of growth at 10 µM [11] [%]	inhibition zone (IZ) [12] [mm]	MBC [14] [µg/mL]	inhibition zone (IZ) [15] [mm]	MIC [16] [µg/mL]	inhibition zone (IZ) [17] [mm]	inhibition of growth at 10 µM [18] [%]	other results
O=c1[nH]nc2c(Cc3ccccc3)nc3ccccc3n12	100 (≈ 362 µM)	100 (≈ 362 µM)	100 (≈ 362 µM)	100 (≈ 362 µM)	100 (≈ 362 µM)	16	200 (≈ 724 µM)	50 (≈ 181 µM)	100 (≈ 362 µM)	16	35.5	10	200 (≈ 724 µM)	12	100 (≈ 362 µM)	14		inhibition of growth at 10 µM [13]: 28.6%
O=C(O)CCc1nnc2c(Cc3ccccc3)nc3ccccc3n12	100 (≈ 301 µM)	12.5 (≈ 37.6 µM)	25 (≈ 75.2 µM)	25 (≈ 75.2 µM)	25 (≈ 75.2 µM)	12	50 (≈ 150 µM)	50 (≈ 150 µM)	25 (≈ 75.2 µM)	13	12.2	15	25 (≈ 75.2 µM)	12	12.5 (≈ 37.6 µM)	16	17.7	inhibition of growth at 10 µM [19]: 18.9%
O=C(O)c1ccccc1-c1nnc2c(Cc3ccccc3)nc3ccccc3n12	50 (≈ 131 µM)	25 (≈ 65.7 µM)	100 (≈ 263 µM)	100 (≈ 263 µM)	100 (≈ 263 µM)	16	200 (≈ 526 µM)	25 (≈ 65.7 µM)	50 (≈ 131 µM)	14	18	15	100 (≈ 263 µM)	12	100 (≈ 263 µM)	14	24.4	inhibition of growth at 10 µM [20]: 43.9%; inhibition of growth at 10 µM [21]: 20.2%; inhibition of growth at 10 µM [22]: 14.6%; inhibition of growth at 10 µM [23]: 14.1%
CCOC(=O)c1nnc2c(Cc3ccccc3)nc3ccccc3n12	50 (≈ 150 µM)	50 (≈ 150 µM)	100 (≈ 301 µM)	50 (≈ 150 µM)	100 (≈ 301 µM)	13	50 (≈ 150 µM)	25 (≈ 75.2 µM)	50 (≈ 150 µM)	14	15.1	12	100 (≈ 301 µM)	10	50 (≈ 150 µM)	15	10.3	
CCOC(=O)Cc1nnc2c(Cc3ccccc3)nc3ccccc3n12	25 (≈ 72.2 µM)	100 (≈ 289 µM)	100 (≈ 289 µM)	50 (≈ 144 µM)	100 (≈ 289 µM)	14	100 (≈ 289 µM)	25 (≈ 72.2 µM)	100 (≈ 289 µM)	14		15	100 (≈ 289 µM)	14	100 (≈ 289 µM)	12		
CC1(C)S[C@@H]2[C@H](NC(=O)[C@H](N)c3ccccc3)C(=O)N2[C@H]1C(=O)O [AMPICILLIN]		10 (≈ 28.6 µM)	50 (≈ 143 µM)	5 (≈ 14.3 µM)											12.5 (≈ 35.8 µM)			
Clc1ccccc1C(c1ccccc1)(c1ccccc1)n1ccnc1 [CLOTRIMAZOLE]								5 (≈ 14.5 µM)										
